Laboratory results from patent US20120165319A1, “INHIBITORS OF INTERLEUKIN-1 BETA CONVERTING ENZYME” (VERTEX PHARMACEUTICALS INCORPORATED, priority 1995, published 2012).
One block for each compound: values may come before it.

What was measured:
[1] = target: T1, TX (Homo sapiens, UniProt P49662); test: Inhibition of ICE homologs: TX; type: biochemical; conditions: for kinact (TX): second-order rate constant for inactivation, irreversible inhibitors (Table 2); for Ki: ICE substrate, conditions identical to ICE (Table 1)
T1 construct: made in house; host or cells: Spodoptera frugiperda (Sf9) insect cells, recombinant baculovirus (pVL1393/TX)
T1 sequence (P49662 81-270 limits assumed): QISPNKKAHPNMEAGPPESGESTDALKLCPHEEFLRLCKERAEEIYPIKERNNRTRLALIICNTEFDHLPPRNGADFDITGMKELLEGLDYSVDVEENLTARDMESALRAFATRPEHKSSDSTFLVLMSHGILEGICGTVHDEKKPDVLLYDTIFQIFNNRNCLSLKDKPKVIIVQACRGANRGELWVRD
T1 sequence (P49662 290-377 limits assumed): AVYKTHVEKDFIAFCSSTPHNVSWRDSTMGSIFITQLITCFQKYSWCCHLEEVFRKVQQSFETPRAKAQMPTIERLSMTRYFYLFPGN
From the text: Expression of TX in insect cells using a baculovirus expression system. We have subcloned Tx cDNA (Faucheu et al., supra 1995) into a modified pVL1393 transfer vector, co-transfected the resultant plasmid (pVL1393/TX) into insect cells with viral DNA and identified the recombinant baculovirus. After the generation of high titer recombinant virus stock, the medium was examined for TX activity using the visible ICE assay. […] ICE was used as a standard in the assay.
(§1) The selectivity of a panel of reversible inhibitors for ICE homologs is depicted in Table 1. ICE enzyme assays were performed according to Wilson et al (supra 1994) using a YVAD-AMC substrate (Thornberry et al, supra 1992). Assay of TX activity was performed using the ICE substrate under identical conditions to ICE. Assay of CPP32 was performed using a DEVD-AMC substrate (Nicholson et al., supra 1995). In general, there is low selectivity between ICE and TX for a wide range of scaffolds. None of the synthetic ICE compounds tested are effective inhibitors of CPP32.
(§2) Second-order rate constants for inactivation of ICE and ICE homologs with selected irreversible inhibitors are presented below (Table 2). The irreversible compounds studied are broad spectrum inhibitors of ICE and its homologs. Some selectivity, however, is observed with the irreversible compounds comparing inhibition of ICE and CPP32.

[2] = target: T2, ICE (Homo sapiens, UniProt P29466); test: Enzyme assay with fluorescent substrate (Acetyl-Tyr-Val-Ala-Asp-AMC); Ki and second order rate constants kinact; type: biochemical; conditions: for kinact (ICE): second-order rate constant for inactivation, irreversible inhibitors (Table 2)
T2 sequence (P29466 120-297 limits assumed): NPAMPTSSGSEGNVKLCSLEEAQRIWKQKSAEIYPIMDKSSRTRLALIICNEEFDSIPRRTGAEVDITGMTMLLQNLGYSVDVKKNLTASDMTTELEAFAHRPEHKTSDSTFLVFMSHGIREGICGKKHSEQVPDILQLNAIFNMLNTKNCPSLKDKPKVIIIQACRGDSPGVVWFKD
T2 sequence (P29466 317-404 limits assumed): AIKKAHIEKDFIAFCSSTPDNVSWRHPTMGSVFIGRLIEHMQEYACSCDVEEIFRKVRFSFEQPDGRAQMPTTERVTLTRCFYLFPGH
Description: 2. Enzyme Assay with Fluorescent Substrate
This assay is run essentially according to Thornberry et al. (Nature 356: 768-774 (1992)), using substrate 17 referenced in that article. The substrate is: Acetyl-Tyr-Val-Ala-Asp-amino-4-methylcoumarin (AMC). The following components are mixed:
The assay is run in a 96 well microtiter plate. Buffer and ICE are added to the wells. The components are left to incubate at 37° C. for 15 minutes in a temperature-controlled wellplate. After the 15 minute incubation, the reaction is started by adding substrate directly to the wells and the reaction is monitored @37° C. for 30 minutes by following the release of the AMC fluorophore using an excitation wavelength for 380 nm and an emission wavelength of 460 nm. A linear fit of the data for each well is performed and a rate is determined in fluorescence units per second.
For determination of enzyme inhibition constants (Ki) or the mode of inhibition (competitive, uncompetitive or noncompetitive), the rate data determined in the enzyme assays at varying inhibitor concentrations are computer-fit to standard enzyme kinetic equations (see I. H. Segel, Enzyme Kinetics, Wiley-Interscience, 1975).
The determination of second order rate constants for irreversible inhibitors was performed by fitting the fluorescence vs time data to the progress equations of Morrison. Morrison, J. F., Mol. Cell. Biophys., 2, pp. 347-368 (1985). Thornberry et al. have published a description of these methods for measurement of rate constants of irreversible inhibitors of ICE. Thornberry, N. A., et al. Biochemistry, 33, pp. 3923-3940 (1994). For compounds where no prior complex formation can be observed kinetically, the second order rate constants (kinact) are derived directly from the slope of the linear plots of kobs vs. [I]. For compounds where prior complex formation to the enzyme can be detected, the hyperbolic plots of kobs vs. [I] are fit to the equation for saturation kinetics to first generate Ki and k′. The second order rate constant kinact is then given by k′/Ki.
as §1, §2

[3] = target: T3, CPP32 (Homo sapiens, UniProt P42574); test: Inhibition of ICE homologs: CPP32 (DEVD-AMC substrate); conditions: for kinact (CPP32): second-order rate constant for inactivation, irreversible inhibitors (Table 2)
T3 sequence (P42574 29-175 limits assumed): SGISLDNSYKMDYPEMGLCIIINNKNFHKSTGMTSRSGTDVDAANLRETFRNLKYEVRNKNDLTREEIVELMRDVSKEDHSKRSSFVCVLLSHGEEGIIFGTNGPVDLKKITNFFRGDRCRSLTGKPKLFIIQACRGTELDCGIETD
T3 sequence (P42574 176-277 limits assumed): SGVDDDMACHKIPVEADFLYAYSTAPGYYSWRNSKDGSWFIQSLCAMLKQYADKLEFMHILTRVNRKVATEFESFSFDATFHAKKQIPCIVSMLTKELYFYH

[4] = Measurement of blood levels of prodrugs of 214e after p.o. dosing in mice; type: in vivo, mouse; conditions: p.o. 50 mg/kg in 0.5% carboxymethylcellulose, blood at 1 and 7 hours
Description: Measurement of Blood Levels of Prodrugs of 214e
Mice were administered a p.o. dose of compounds 302 and 304a (50 mg/kg) prepared in 0.5% carboxymethylcellulose. Blood samples were collected at 1 and 7 hours after dosing. Serum was extracted by precipitation with an equal volume of acetonitrile containing 2% formic acid followed by centrifugation. The supernatant was analyzed by liquid chromatography-mass spectrometry (ESI-MS) with a detection level of 0.03 to 3 μg/ml.

[5] = tested on: U937 cells; test: Fas-induced apoptosis in U937 cells; conditions: Homo sapiens; for inhibition at 20 µM: U-937, read-out: Inhibition of apoptosis

SMILES: O=C(O)C[C@H](NC(=O)[C@@H]1CCCN2C(=O)CC[C@H](NC(=O)OCc3ccccc3)C(=O)N12)C(=O)COC(=O)c1c(Cl)cccc1Cl [Compound 217d, [3S(1S,9S)]3-(9-Benzyloxycarbonylamino-6,10-dioxo-1,2,3,4,7,8,9,10-octahydro-6H-pyridazino[1,2-a][1,2]-diazepine-1-carboxamido)-5-(2,6-dichlorobenzoyloxy)-4-oxopentanoic acid]
- melting point: 85 to 110 °C
- kinact (TX) [1]: 250,000 M^−1 s^−1
- Fluorescent Assay kinact ([2]; Table 6): 4.7 × 10^5 m^−1 s^−1
- kinact (ICE) [2]: 475,000 M^−1 s^−1
- kinact (CPP32) [3]: 150,000 M^−1 s^−1

SMILES: COC(=O)N[C@H]1CCC(=O)N2CCC[C@@H](C(=O)N[C@@H](CC(=O)O)C(=O)COC(=O)c3c(C)cccc3C)N2C1=O [Compound 285, [3S(1S,9S)]5-(2,6-Dimethylbenzoyloxy)-3-[6,10-dioxo-9-(methoxycarbonyl)amino-1,2,3,4,7,8,9,10-octahydro-6H-pyridazino[1,2-a][1,2]diazepine-1-carboxamido]-4-oxopentanoic acid]
- melting point: 110 °C (dec.)
- Fluorescent Assay kinact ([2]; Table 6): 4.3 × 10^5 m^−1 s^−1

SMILES: O=C(O)C[C@H](NC(=O)[C@@H]1CCCN2C(=O)CC[C@H](NC(=O)CCc3ccccc3)C(=O)N12)C(=O)c1ncc(-c2c(Cl)cccc2Cl)o1 [Compound 137]
- Ki [1]: 40 ± 7 nM
- Ki [3]: > 1000 nM

SMILES: CC(C)(C)OC(=O)C[C@@H](C=O)NC(=O)[C@@H]1CCCN2C(=O)CC[C@H](NC(=O)c3ccccc3)C(=O)N12 [Compound 302, [3S(1S,9S)3-(9-Benzoylamino-6,10-dioxo-1,2,3,4,7,8,9,10-octahydro-6H-pyriazino-[1,2-a][1,2]diazapine-1-carboxamido)-amino]-4-oxobutanoic acid tert-butyl ester]
- blood levels when administered orally (in words) [4]: detectable blood levels

SMILES: O=C(O)C[C@H](NC(=O)[C@@H]1CCCN2C(=O)CC[C@H](NC(=O)c3ccccc3)C(=O)N12)C(=O)COC(=O)c1c(Cl)cccc1Cl [Compound 217e, [3S(1S,9S)]3-(9-Benzoylamino-6,10-dioxo-1,2,3,4,7,8,9,10-octahydro-6H-pyridazino[1,2-a][1,2]-diazepine-1-carboxamido)-5-(2,6-dichlorobenzoyloxy)-4-oxopentanoic acid]
- IC50 ([5]; U-937, 24 h, read-out: IC50, anti-Fas-induced apoptosis): 800 nM

SMILES: CS(=O)(=O)N[C@H]1CCC(=O)N2CCC[C@@H](C(=O)N[C@@H](CC(=O)O)C(=O)COC(=O)c3cccc4ccccc34)N2C1=O [Compound 286, [3S(1S,9S)]3-(6,10-Dioxo-9-methanesulphonylamino-1,2,3,4,7,8,9,10-octahydro-6H-pyridazino[1,2-a][1,2]diazepine-1-carboxamido)-5-(1-naphthoyloxy)-4-oxopentanoic acid]
- Fluorescent Assay kinact ([2]; Table 18): 370000 m^−1 s^−1

SMILES: CS(=O)(=O)N[C@H]1CCC(=O)N2CCC[C@@H](C(=O)N[C@@H](CC(=O)O)C(=O)COC(=O)c3c(Cl)cccc3Cl)N2C1=O [Compound 138]
- kinact (TX) [1]: 150,000 M^−1 s^−1
- inhibition at 20 µM [5]: > 75%
- Fluorescent Assay kinact ([2]; Table 6): 1.2 × 10^5 m^−1 s^−1
- kinact (ICE) [2]: 120,000 M^−1 s^−1
- kinact (CPP32) [3]: 550,000 M^−1 s^−1

SMILES: O=C(O)C[C@H](NC(=O)[C@@H]1CCCN2C(=O)CC[C@H](NC(=O)c3ccccc3)C(=O)N12)C(=O)COc1cccnc1 [Compound 283, [3S(1S,9S)]3-[9-Benzoylamino-6,10-dioxo-1,2,3,4,7,8,9,10-octahydro-6H-pyridazino[1,2-a][1,2]diazepine-1-carboxamido]-4-oxo-5-(3-pyridyloxy)pentanoic acid]
- Fluorescent Assay kinact ([2]; Table 6): 1 × 10^5 m^−1 s^−1

SMILES: CS(=O)(=O)N[C@H]1CCC(=O)N2CCC[C@@H](C(=O)N[C@@H](CC(=O)O)C(=O)COC(=O)c3sccc3Cl)N2C1=O [505 e, [3S(1S,9S)]5-(3-Chlorothien-2-oyloxy)-3-(6,10-dioxo-9-methanesulphonylamino-1,2,3,4,7,8,9,10-octahydro-6H-pyridazino[1,2-a][1,2]diazepine-1-carboxamido)-4-oxopentanoic acid]
- Fluorescent Assay kinact ([2]; Table 18): 420000 m^−1 s^−1

SMILES: O=C(O)C[C@H](NC(=O)[C@@H]1CCCN2C(=O)CC[C@H](NC(=O)c3ccccc3)C(=O)N12)C(=O)CSc1nnnn1-c1ccccc1 [Compound 280, [3S(1S,9S)]3-(9-Benzoylamino-6,10-dioxo-1,2,3,4,7,8,9,10-octahydro-6H-pyridazino[1,2-a][1,2]diazepine-1-carboxamido)-4-oxo-5(1-phenyl-1H-tetrazole-5-thio)pentanoic acid]
- Fluorescent Assay kinact ([2]; Table 6): 4 × 10^5 m^−1 s^−1

SMILES: O=C(O)C[C@H](NC(=O)[C@@H]1CCCN2C(=O)CC[C@H](NC(=O)CCc3ccccc3)C(=O)N12)C(=O)COC(=O)c1c(Cl)cccc1Cl [Compound 136]
- inhibition at 20 µM [5]: > 75%
- Fluorescent Assay kinact ([2]; Table 6): 5.4 × 10^5 m^−1 s^−1

Continued, values first:

- melting point: 76 to 80 °C
- Ki [1]: 57 ± 13 nM
- Ki [3]: > 1000 nM
SMILES: O=C(O)C[C@H](NC(=O)[C@@H]1CCCN2C(=O)CC[C@H](NC(=O)CCc3ccccc3)C(=O)N12)C(=O)CSCc1ccccc1Cl [Compound 125b, [3S(1S,9S)]-3-(6,10-dioxo-1,2,3,4,7,8,9,10-octahydro)-9-(3-phenylpropionyl-amino)-6H-pyridazine[1,2-a][1,2]diazepine-1-carboxamido-5-(2-chlorophenyl-methylthio)-4-oxopentanoic acid]

- Ki [1]: 55 ± 9 nM
- Ki [3]: > 1000 nM
SMILES: COc1cccc2nc(C(=O)[C@H](CC(=O)O)NC(=O)[C@@H]3CCCN4C(=O)CC[C@H](NC(=O)CCc5ccccc5)C(=O)N34)oc12 [Compound 135a]
